# Earlier results, collected in patent publication US7365075B2, “Aryl sulfonamide compounds and uses related thereto” (Amgen Inc., priority 2003, dated 2008).
compound,measurement,setting,value
CC1(C)[C@@H](OC(=O)CCC(=O)O)CC[C@]2(C)[C@H]3C(=O)C=C4[C@@H]5C[C@@](C)(C(=O)O)CC[C@]5(C)CC[C@@]4(C)[C@]3(C)CC[C@@H]12 [carbenoxolone],reduction of the intraocular pressure,normal patients,20%
same,hepatic insulin sensitivity,humans,improved hepatic insulin sensitivity
same,detrimental effects of glucocorticoids on bone nodule formation,bone nodule formation,lessened
